# Test results from PubChem BioAssay (NCI).
# Several values for one entry are separate records, joined by “and”; a condition that tells them apart may be missing. Identical values can stand only once.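 Assay format: 96-well plates, 48-hour exposure. TGI is the concentration that stops growth completely.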
# How the values were obtained:
# Assay in all cases: NCI tumour cell line growth inhibition, 48 h
# [1] = system: MCF7 breast
# [2] = system: KM12 colon
# [3] = system: HL-60(TB) leukemia
# [4] = system: HOP-92 NSCLC
# [5] = system: SW-620 colon
# [6] = system: MDA-MB-231 breast
# [7] = system: OVCAR-5 ovarian
# [8] = system: SNB-19 CNS
# [9] = system: U251 CNS
# [10] = system: SK-MEL-28 melanoma
# [11] = system: IGROV1 ovarian
# [12] = system: TK-10 renal
# [13] = system: UACC-257 melanoma
# [14] = system: SF-539 CNS
Structure (SMILES),TGI [1] [µM],TGI [2],TGI [3] [µM],TGI [4] [µM],TGI [5],TGI [6],TGI [7] [µM],TGI [8] [µM],TGI [9],TGI [10] [µM],TGI [11],TGI [12],TGI [13],TGI [14] [µM]
CN(C(=O)c1ccc(Cl)cc1)C(=S)N1CCN(c2ccccc2)CC1,> 100,> 100 µM,> 100,> 100,> 100 µM,> 100 µM,> 100,> 100,> 100 µM,> 100,> 100 µM,> 100 µM,> 100 µM,–
O=C(N[C@@H](Cc1ccccc1)B(O)O)[C@H](Cc1cccc2ccccc12)NC(=O)N1CCOCC1,0.352,0.0041 µM and 0.0149 µM,–,0.00744,0.0125 µM and 0.0101 µM,0.00745 µM and 0.0232 µM,0.0155,0.671,0.132 µM and 0.174 µM,0.00367,0.07 µM and 0.0754 µM,0.154 µM and 0.413 µM,0.0065 µM and 0.0397 µM,0.000769
CCCCSC1=N/C(=C\c2ccc(N(C)C)cc2)C(Cl)=N1,> 100,> 100 µM,–,> 100,> 100 µM,> 100 µM,> 100,> 100,> 100 µM,> 100,> 100 µM,> 100 µM,> 100 µM,> 100
C=COC(=O)N1C2CCCC(Cl)(C(C)=O)C1CC2 (stereo unspecified),> 100,> 100 µM,–,> 100,> 100 µM,> 100 µM,> 100,> 100,> 100 µM,> 100,> 100 µM,> 100 µM,> 100 µM,–
Cn1c(O)c(C=Nc2ccc(Cl)cc2Cl)c(=O)n(C)c1=O,> 100,> 100 µM,–,> 100,> 100 µM,> 100 µM,> 100,> 100,> 100 µM,–,> 100 µM,> 100 µM,> 100 µM,> 100
CC1(C)/C(=N\Nc2ccc([N+](=O)[O-])cc2[N+](=O)[O-])C2CCC1C2 (stereo unspecified),> 100,> 100 µM,> 100,> 100,> 100 µM,–,> 100,> 100,> 100 µM,> 100,> 100 µM,> 100 µM,> 100 µM,–
CC(C)C[C@H](NC(=O)CCc1cccc2ccccc12)B(O)O,> 52,5.4 µM,–,7.37,3.26 µM,15.2 µM,6.72,> 100,19.6 µM,4.05,23.8 µM,12.4 µM,3.91 µM,1.21
Clc1nc(Nc2nc3ccccc3[nH]2)nc(Cl)c1-c1ccccc1,–,> 100 µM,> 100,35,35.6 µM,29.1 µM,59.6,> 100,32.7 µM,27,54.2 µM,> 100 µM,80.2 µM,34.6
